From patent US10941157B2, “Pesticidal compositions and uses thereof” (Gilead Apollo, LLC, priority 2015, dated 2021)
Values after ≈ are worked out from the molar mass of the structure shown. Like-named read-outs stand apart in the source and are kept apart here.

Key:
Assay type in all cases: cell-based
[1] = test system: Fusarium moniliforme (Fm); test: In vitro pathogen growth inhibition assay, Fm; details: Fusarium verticillioides
Outline: (§1)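 Spores in 17% V8 liquid medium, or 1.5 mm Rs mycelial plugs in ¼ PDB, incubated with compound; final concentration checked by OD600 for precipitation. OD readings at 24 and 48 h, blank-subtracted, plus visual ratings; value is concentration giving ≥90% growth inhibition.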

Diplodia maydis (Dm) = test: In vitro pathogen growth inhibition assay, Dm; details: Stenocarpella maydis, 48 h
Outline: (§2)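 Value reported is the compound concentration reaching ≥90% growth inhibition, from OD readings at 24 and 48 h after blank subtraction, confirmed visually. Inoculum was spores diluted in 17% V8 medium, except Rs, using 1.5 mm mycelial plugs in ¼ PDB; actual compound concentration corrected via OD600.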

Botrtyis cinerea (Bc) = test: In vitro pathogen growth inhibition assay, Bc; details: 48 h
Outline: as §1

Rhizoctonia solani (Rs) = test: In vitro pathogen growth inhibition assay, Rs (mycelial plugs); details: Rhizoctonia solani, 48 h
Outline: as §2

[2] = test system: Fusarium virguliforme (Fv); test: In vitro pathogen growth inhibition assay, Fv
Outline: as §2

[3] = test system: Collectotrichum graminicola (Cg); test: In vitro pathogen growth inhibition assay, Cg; details: 48 h
Outline: as §1

Septoria tritici (St) = test: In vitro pathogen growth inhibition assay, St; details: Zymoseptoria tritici, 48 h
Outline: as §1

[4] = test system: Phytophthora capsici (Pc); test: In vitro pathogen growth inhibition assay, Pc; details: 48 h
Outline: as §2

[5] = ≥90% growth inhibition, 48 hours, vs 2% DMSO control, read-out: Compound Concentration (ppm) sufficient for ≥90% inhibition of Fm
[6] = ≥90% growth inhibition, 48 hours, vs 2% DMSO control, read-out: Compound Concentration (ppm) sufficient for ≥90% inhibition of Dm
[7] = ≥90% growth inhibition, 48 hours, vs 2% DMSO control, read-out: Compound Concentration (ppm) sufficient for ≥90% inhibition of Bc
[8] = ≥90% growth inhibition, mycelial plugs, 48 hours, vs 2% DMSO control, read-out: Compound Concentration (ppm) sufficient for ≥90% inhibition of Rs
[9] = ≥90% growth inhibition, 48 hours, vs 2% DMSO control, read-out: Compound Concentration (ppm) sufficient for ≥90% inhibition of Fv
[10] = ≥90% growth inhibition, 48 hours, vs 2% DMSO control, read-out: Compound Concentration (ppm) sufficient for ≥90% inhibition of Cg
[11] = ≥90% growth inhibition, 48 hours, vs 2% DMSO control, read-out: Compound Concentration (ppm) sufficient for ≥90% inhibition of St
[12] = ≥90% growth inhibition, 48 hours, vs 2% DMSO control, read-out: Compound Concentration (ppm) sufficient for ≥90% inhibition of Pc
[13] = concentration sufficient to ≥90% inhibition of growth, 48 hours vs 2% DMSO control, read-out: Compound Concentration (ppm) for ≥90% inhibition, Fm
[14] = concentration sufficient to ≥90% inhibition of growth, 48 hours vs 2% DMSO control, read-out: Compound Concentration (ppm) for ≥90% inhibition, Dm
[15] = concentration sufficient to ≥90% inhibition of growth, 48 hours vs 2% DMSO control, read-out: Compound Concentration (ppm) for ≥90% inhibition, Bc
[16] = concentration sufficient to ≥90% inhibition of growth, 48 hours vs 2% DMSO control, read-out: Compound Concentration (ppm) for ≥90% inhibition, Rs
[17] = concentration sufficient to ≥90% inhibition of growth, 48 hours vs 2% DMSO control, read-out: Compound Concentration (ppm) for ≥90% inhibition, Fv
[18] = concentration sufficient to ≥90% inhibition of growth, 48 hours vs 2% DMSO control, read-out: Compound Concentration (ppm) for ≥90% inhibition, Cg
[19] = concentration sufficient to ≥90% inhibition of growth, 48 hours vs 2% DMSO control, read-out: Compound Concentration (ppm) for ≥90% inhibition, St
[20] = concentration sufficient to ≥90% inhibition of growth, 48 hours vs 2% DMSO control, read-out: Compound Concentration (ppm) for ≥90% inhibition, Pc
[21] = ≥90% inhibition, 48 hours vs 2% DMSO control, read-out: Compound Concentration (ppm) sufficient for ≥90% inhibition of growth, Fm
[22] = ≥90% inhibition, 48 hours vs 2% DMSO control, read-out: Compound Concentration (ppm) sufficient for ≥90% inhibition of growth, Dm
[23] = ≥90% inhibition, 48 hours vs 2% DMSO control, read-out: Compound Concentration (ppm) sufficient for ≥90% inhibition of growth, Bc
[24] = ≥90% inhibition, mycelial plugs, 48 hours vs 2% DMSO control, read-out: Compound Concentration (ppm) sufficient for ≥90% inhibition of growth, Rs
[25] = ≥90% inhibition, 48 hours vs 2% DMSO control, read-out: Compound Concentration (ppm) sufficient for ≥90% inhibition of growth, Fv
[26] = ≥90% inhibition, 48 hours vs 2% DMSO control, read-out: Compound Concentration (ppm) sufficient for ≥90% inhibition of growth, Cg
[27] = ≥90% inhibition, 48 hours vs 2% DMSO control, read-out: Compound Concentration (ppm) sufficient for ≥90% inhibition of growth, St
[28] = ≥90% inhibition, 48 hours vs 2% DMSO control, read-out: Compound Concentration (ppm) sufficient for ≥90% inhibition of growth, Pc

Row | Structure (SMILES) | IC90 [1, 21] [µg/mL] | IC90 (Diplodia maydis (Dm); [22]) [µg/mL] | IC90 (Botrtyis cinerea (Bc); [23]) [µg/mL] | IC90 (Rhizoctonia solani (Rs); [24]) [µg/mL] | IC90 [2, 25] [µg/mL] | IC90 [3, 26] [µg/mL] | IC90 (Septoria tritici (St); [27]) [µg/mL] | IC90 [4, 28] [µg/mL] | also measured
1 | COc1ccc(F)cc1[C@H](Cn1c(=O)n(C(C)(C)C(=O)N2CCCC2)c(=O)c2c(C)c(-n3cccn3)sc21)OCCC#N [Compound I-194] | – | – | – | – | – | – | – | – | IC90 [1, 5]: 2 µg/mL (≈ 3.29 µM); IC90 (Diplodia maydis (Dm); [6]): 50 µg/mL (≈ 82.1 µM); IC90 (Botrtyis cinerea (Bc); [7]): 10 µg/mL (≈ 16.4 µM); IC90 (Rhizoctonia solani (Rs); [8]): 10 µg/mL (≈ 16.4 µM); IC90 [2, 9]: ≥ 10 µg/mL; IC90 [3, 10]: 50 µg/mL (≈ 82.1 µM); IC90 (Septoria tritici (St); [11]): > 50 µg/mL; IC90 [4, 12]: > 50 µg/mL
2 | Cc1c(-n2cccn2)sc2c1c(=O)n(C(C)(C)C(=O)NC(C)C)c(=O)n2CCc1cc(F)ccc1OCCO [Compound I-337] | – | – | – | – | – | – | – | – | IC90 [1, 13]: 10 µg/mL (≈ 17.9 µM); IC90 (Diplodia maydis (Dm); [14]): > 50 µg/mL; IC90 (Botrtyis cinerea (Bc); [15]): 50 µg/mL (≈ 89.7 µM); IC90 (Rhizoctonia solani (Rs); [16]): 10 µg/mL (≈ 17.9 µM); IC90 [2, 17]: 10 µg/mL (≈ 17.9 µM); IC90 [3, 18]: > 50 µg/mL; IC90 (Septoria tritici (St); [19]): > 50 µg/mL; IC90 [4, 20]: > 50 µg/mL
3 | COc1ccc(F)cc1[C@H](Cn1c(=O)n(C(C)(C)C(=O)N(C)C)c(=O)c2c(C)c(-n3nccn3)sc21)OC(C)C [Compound I-131] | 0.4 (≈ 0.698 µM) | 2 (≈ 3.49 µM) | 0.4 (≈ 0.698 µM) | ≥ 0.4 | 0.4 (≈ 0.698 µM) | 10 (≈ 17.5 µM) | > 50 | > 50 | –
4 | COCCCO[C@@H](Cn1c(=O)n([C@@H](C)C(=O)NC(C)C)c(=O)c2c(C)c(-n3nccn3)sc21)c1cc(F)ccc1OC [Compound I-093] | 0.08 (≈ 0.133 µM) | 2 (≈ 3.32 µM) | 0.4 (≈ 0.664 µM) | 2 (≈ 3.32 µM) | 10 (≈ 16.6 µM) | 10 (≈ 16.6 µM) | > 50 | > 50 | –
5 | COc1ccc(F)cc1[C@H](Cn1c(=O)n(C(C)(C)C(=O)N2CCCC2)c(=O)c2c(C)c(-n3cccn3)sc21)OCCC#N [Compound I-203] | – | – | – | – | – | – | – | – | IC90 [1, 13]: 10 µg/mL (≈ 16.4 µM); IC90 (Diplodia maydis (Dm); [14]): 50 µg/mL (≈ 82.1 µM); IC90 (Botrtyis cinerea (Bc); [15]): 50 µg/mL (≈ 82.1 µM); IC90 (Rhizoctonia solani (Rs); [16]): 10 µg/mL (≈ 16.4 µM); IC90 [2, 17]: 50 µg/mL (≈ 82.1 µM); IC90 [3, 18]: 50 µg/mL (≈ 82.1 µM); IC90 (Septoria tritici (St); [19]): > 50 µg/mL; IC90 [4, 20]: > 50 µg/mL
6 | COc1ccc(F)cc1[C@H](Cn1c(=O)n([C@H](C)C(=O)NC(C)C)c(=O)c2c(C)c(-n3nccn3)sc21)OC(C)C [Compound I-061] | 0.08 (≈ 0.14 µM) | 0.4 (≈ 0.698 µM) | 0.4 (≈ 0.698 µM) | 0.4 (≈ 0.698 µM) | 0.4 (≈ 0.698 µM) | 0.08 (≈ 0.14 µM) | > 50 | > 50 | –
7 | COc1ccccc1[C@H](Cn1c(=O)n(C(C)(C)C(=O)NC(C)C)c(=O)c2c(C)c(-n3cccn3)sc21)OC(C)C [Compound I-118] | 0.4 (≈ 0.705 µM) | 2 (≈ 3.52 µM) | 2 (≈ 3.52 µM) | 50 (≈ 88.1 µM) | 0.4 (≈ 0.705 µM) | 10 (≈ 17.6 µM) | ≥ 50 | > 50 | –
8 | COc1ccc(F)cc1[C@H](Cn1c(=O)n(C(C)(C)C(=O)NC(C)C)c(=O)c2c(C)c(-n3cccn3)sc21)OC1CCOCC1 [Compound I-115] | 0.4 (≈ 0.637 µM) | ≥ 2 | 2 (≈ 3.19 µM) | 10 (≈ 15.9 µM) | 2 (≈ 3.19 µM) | ≥ 2 | ≥ 50 | > 50 | –
9 | C=CCNC(=O)C(C)(C)n1c(=O)c2c(C)c(-n3nccn3)sc2n(C[C@H](OC2CCOCC2)c2cc(F)ccc2OC)c1=O [Compound I-079] | 0.08 (≈ 0.128 µM) | 2 (≈ 3.19 µM) | 2 (≈ 3.19 µM) | 0.4 (≈ 0.638 µM) | 0.4 (≈ 0.638 µM) | 2 (≈ 3.19 µM) | > 50 | > 50 | –
10 | CCc1ccc(F)cc1[C@H](Cn1c(=O)n(C(C)(C)C(=O)NC(C)C)c(=O)c2c(C)c(-n3nccn3)sc21)OCCOC [Compound I-247] | – | – | – | – | – | – | – | – | IC90 [1, 5]: 0.08 µg/mL (≈ 0.133 µM); IC90 (Diplodia maydis (Dm); [6]): 2 µg/mL (≈ 3.33 µM); IC90 (Botrtyis cinerea (Bc); [7]): 0.4 µg/mL (≈ 0.666 µM); IC90 (Rhizoctonia solani (Rs); [8]): 2 µg/mL (≈ 3.33 µM); IC90 [2, 9]: 0.4 µg/mL (≈ 0.666 µM); IC90 [3, 10]: 0.4 µg/mL (≈ 0.666 µM); IC90 (Septoria tritici (St); [11]): ≥ 10 µg/mL; IC90 [4, 12]: > 50 µg/mL
